Assay results: patent publication US12421252B2, “Spiro (isobenzofuranazetidine) compounds for the treatment of autoimmune disease” (Hoffmann-La Roche Inc., priority 2020, dated 2025)

Assays:
hERG channel = target: T1, hERG channel (Homo sapiens, UniProt Q12809); assay: hERG channel inhibition assay (patch-clamp, CHO hERG cells); format: cell-based; conditions: for safety window (hERG IC20/TLR7/8/9 IC50, in words): compared to the compounds of this invention; for hERG IC20/TLR7 IC50 / hERG IC20/TLR9 IC50: safety ratio
T1 construct: expressed in transfected cells
Protocol: hERG Channel Inhibition Assay:
The hERG K+ channels were cloned in humans and stably expressed in a CHO (Chinese hamster ovary) cell line. CHOhERG cells were used for patch-clamp (voltage-clamp, whole-cell) experiments. Cells were stimulated by a voltage pattern to activate hERG channels and conduct IKhERG Currents (rapid delayed outward rectifier potassium current of the hERG channel). After the cells were stabilized for a few minutes, the amplitude and kinetics of IKhERG were recorded at a stimulation frequency of 0.1 Hz, (6 bpm). Thereafter, the test compound was added to the preparation at increasing concentrations. For each concentration, an attempt was made to reach a steady-state effect, usually, this was achieved within 3-10 min at which time the next highest concentration was applied. The amplitude and kinetics of IKhERG are recorded in each concentration of the drug which were compared to the control values (taken as 100%). (references: Redfern W S, Carlsson L, Davis A S, Lynch W G, MacKenzie I, Palethorpe S, Siegl P K, Strang I, Sullivan A T, Wallis R, Camm A J, Hammond T G. 2003; Relationships between preclinical cardiac electrophysiology, clinical QT interval prolongation and torsade de pointes for a broad range of drugs: evidence for a provisional safety margin in drug development. Cardiovasc. Res. 58:32-45, Sanguinetti M C, Tristani-Firouzi M. 2006; hERG potassium channels and cardiac arrhythmia. Nature 440:463-469, Webster R, Leishman D, Walker D. 2002; Towards a drug concentration effect relationship for QT prolongation and torsades de pointes. Curr. Opin. Drug Discov. Devel. 5:116-26).

hTLR9 = target: T2, hTLR9 (Homo sapiens, UniProt Q9NR96); design: host or cells: HEK; conditions: data disclosed in US20150105370; read-out: HEK/hTLR9 IC50; cited from earlier work
T2 sequence (Q9NR96 26-1032): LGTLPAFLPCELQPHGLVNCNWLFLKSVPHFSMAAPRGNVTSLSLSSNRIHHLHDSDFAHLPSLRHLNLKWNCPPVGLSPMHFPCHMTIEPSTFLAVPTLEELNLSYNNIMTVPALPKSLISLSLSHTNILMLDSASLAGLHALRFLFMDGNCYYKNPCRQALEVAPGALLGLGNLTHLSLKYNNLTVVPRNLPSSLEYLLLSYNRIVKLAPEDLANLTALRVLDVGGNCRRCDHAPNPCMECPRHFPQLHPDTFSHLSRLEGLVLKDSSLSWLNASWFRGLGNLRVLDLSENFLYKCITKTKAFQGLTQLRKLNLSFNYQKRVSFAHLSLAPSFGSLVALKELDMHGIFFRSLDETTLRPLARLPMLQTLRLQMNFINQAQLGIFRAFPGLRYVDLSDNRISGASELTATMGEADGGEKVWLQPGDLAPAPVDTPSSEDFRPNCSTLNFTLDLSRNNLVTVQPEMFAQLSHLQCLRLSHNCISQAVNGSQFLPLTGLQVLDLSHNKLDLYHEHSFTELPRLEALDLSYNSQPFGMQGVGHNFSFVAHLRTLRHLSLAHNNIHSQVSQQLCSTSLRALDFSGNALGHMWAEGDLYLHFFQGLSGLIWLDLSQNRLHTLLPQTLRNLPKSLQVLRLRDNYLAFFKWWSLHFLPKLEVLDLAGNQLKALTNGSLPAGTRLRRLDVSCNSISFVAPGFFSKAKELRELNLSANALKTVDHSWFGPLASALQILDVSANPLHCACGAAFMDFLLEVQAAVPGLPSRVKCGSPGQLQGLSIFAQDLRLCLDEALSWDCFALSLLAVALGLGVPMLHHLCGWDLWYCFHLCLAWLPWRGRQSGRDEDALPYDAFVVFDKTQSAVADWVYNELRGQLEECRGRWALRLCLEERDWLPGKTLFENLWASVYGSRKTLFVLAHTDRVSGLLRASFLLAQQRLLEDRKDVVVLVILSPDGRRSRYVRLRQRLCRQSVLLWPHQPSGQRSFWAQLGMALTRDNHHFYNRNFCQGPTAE

CYP2C9 = target: T3, CYP2C9 (Homo sapiens, UniProt P11712); assay: CYP inhibition assay in human liver microsome, CYP2C9; format: in vitro ADME; conditions: percentage inhibition, substrate Diclofenac 5 μM, <0: not or weak inhibitor
T3 construct: tissue BD-Gentest 452117; host or cells: human liver microsomes
Protocol: (§1) This is a high throughput screening assay used for assessment of reversible inhibition of CYP2C9, CYP2D6, and CYP3A4 activity of test compounds in human liver microsome (HLM) in early discovery stage.
(§2) Procedure 10 mM DMSO stock solutions of test compounds were diluted in DMSO to generate 2 mM intermediate stock solution. 250 nL of intermediate stock solution were transferred in duplicate into 3 separate 384 well microtitre plates (assay-ready plates). A mixture of HLM and each substrate was made up. 45 μL of HLM substrate mix was then transferred to each well of an assay ready plate and mixed. The negative (solvent) and positive controls (standard inhibitor for each CYP) were included in each assay ready plate. The assay ready plate was warmed to 37° C. in an incubator over 10 minutes. 5 μL pre-warmed NADPH regenerating system was added to each incubation well to start the reaction. Final incubation volume was 50 μL. The assay plate then was placed back in the 37° C. incubator. After incubation (10 minutes for CYP2D6) for 5 minutes, incubates were quenched by addition of 50 μL 100% acetonitrile containing internal standards (400 ng/mL 13C6-4′-OH-Diclofenac, 20 ng/mL D3-Dextrorphan and 20 ng/mL D4-1′OH-Midazolam). The supernatants were collected for RapidFire/MS/MS analysis.
(§3) RapidFire online solid phase extraction/sample injection system (Agilent) coupled with API4000 triple quadrupole mass spectrometer (AB Sciex) were used for sample analysis. The mobile phase composed of acetonitrile and water supplemented with 0.1% formic acid. A C4 solid phase extraction cartridge is used for sample separation. MS detection is achieved in positive ion MRM mode.
(§4) Data analysis Peak areas for substrate, metabolite and internal standard are determined using the RapidFire integrator software (version 3.6.12009.12296). Peak area ratios (PAR) of metabolite and internal standard (stable-labelled metabolite) are then calculated. The measurement window for each experiment is then defined: PAR (0% activity)=average PAR for all incubations containing concentrated inhibitor; Par (100% activity)=average PAR for all incubations containing no inhibitor (DMSO controls); % Activity (test inhibitor)=[PAR (test inhibitor)-PAR (0% activity)]/[PAR (100% activity)-PAR (0% activity)]; % Inhibition (test inhibitor)=100-% Activity (test inhibitor).

CYP2D6 = target: T4, CYP2D6 (Homo sapiens, UniProt P10635); assay: CYP inhibition assay in human liver microsome, CYP2D6; format: in vitro ADME; conditions: percentage inhibition, substrate Dextromethorphan 5 μM, <0: not or weak inhibitor
T4 construct: tissue BD-Gentest 452117; host or cells: human liver microsomes
Protocol: as §1, §2, §3, §4

CYP3A4 = target: T5, CYP3A4 (Homo sapiens, UniProt P08684); assay: CYP inhibition assay in human liver microsome, CYP3A4; format: in vitro ADME; conditions: percentage inhibition, substrate Midazolam 5 μM, <0: not or weak inhibitor
T5 construct: tissue BD-Gentest 452117; host or cells: human liver microsomes
Protocol: as §1, §2, §3, §4

T1 sequence (Q12809 whole entry): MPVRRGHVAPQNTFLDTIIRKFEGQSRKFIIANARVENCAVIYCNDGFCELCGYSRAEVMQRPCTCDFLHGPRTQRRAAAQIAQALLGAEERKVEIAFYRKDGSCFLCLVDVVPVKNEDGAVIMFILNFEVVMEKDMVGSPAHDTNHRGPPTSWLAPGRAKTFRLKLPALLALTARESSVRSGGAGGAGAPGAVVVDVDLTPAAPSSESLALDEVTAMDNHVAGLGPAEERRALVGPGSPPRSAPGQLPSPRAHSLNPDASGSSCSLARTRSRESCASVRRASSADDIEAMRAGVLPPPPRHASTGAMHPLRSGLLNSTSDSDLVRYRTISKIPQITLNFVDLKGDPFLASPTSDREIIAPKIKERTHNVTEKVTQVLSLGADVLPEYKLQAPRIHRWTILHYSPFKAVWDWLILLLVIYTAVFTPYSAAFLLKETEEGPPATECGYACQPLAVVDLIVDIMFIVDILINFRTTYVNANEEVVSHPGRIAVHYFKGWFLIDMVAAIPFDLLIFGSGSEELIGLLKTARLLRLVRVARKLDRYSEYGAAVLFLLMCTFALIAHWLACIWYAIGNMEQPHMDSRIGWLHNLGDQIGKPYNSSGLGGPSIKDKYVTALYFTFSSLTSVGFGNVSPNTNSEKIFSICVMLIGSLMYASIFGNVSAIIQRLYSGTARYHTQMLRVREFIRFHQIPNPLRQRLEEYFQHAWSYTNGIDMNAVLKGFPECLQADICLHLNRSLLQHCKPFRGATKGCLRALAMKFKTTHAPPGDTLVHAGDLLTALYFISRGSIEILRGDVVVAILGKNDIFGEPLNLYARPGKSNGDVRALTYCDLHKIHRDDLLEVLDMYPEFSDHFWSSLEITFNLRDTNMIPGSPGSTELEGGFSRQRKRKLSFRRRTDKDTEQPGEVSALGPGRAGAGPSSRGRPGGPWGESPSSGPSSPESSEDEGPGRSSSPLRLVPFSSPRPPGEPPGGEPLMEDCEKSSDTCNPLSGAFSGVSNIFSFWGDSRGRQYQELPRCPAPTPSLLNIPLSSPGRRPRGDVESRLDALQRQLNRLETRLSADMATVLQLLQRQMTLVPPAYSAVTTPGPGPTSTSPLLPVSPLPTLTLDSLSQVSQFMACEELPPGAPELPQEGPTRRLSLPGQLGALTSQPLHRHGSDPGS
T5 sequence (P08684 whole entry): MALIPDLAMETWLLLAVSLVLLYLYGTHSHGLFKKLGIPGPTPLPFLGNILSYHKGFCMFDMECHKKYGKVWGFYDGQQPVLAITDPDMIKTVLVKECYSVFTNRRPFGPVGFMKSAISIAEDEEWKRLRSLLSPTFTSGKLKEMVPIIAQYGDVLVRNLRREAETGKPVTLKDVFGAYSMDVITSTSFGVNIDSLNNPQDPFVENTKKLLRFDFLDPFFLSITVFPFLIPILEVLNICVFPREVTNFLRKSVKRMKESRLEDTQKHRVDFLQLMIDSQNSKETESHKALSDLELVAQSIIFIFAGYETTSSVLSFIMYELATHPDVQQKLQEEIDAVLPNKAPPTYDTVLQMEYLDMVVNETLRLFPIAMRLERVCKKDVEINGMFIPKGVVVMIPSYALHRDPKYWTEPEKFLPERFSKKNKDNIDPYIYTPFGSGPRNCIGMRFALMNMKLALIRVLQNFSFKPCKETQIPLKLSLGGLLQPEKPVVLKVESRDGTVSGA
T4 sequence (P10635 whole entry): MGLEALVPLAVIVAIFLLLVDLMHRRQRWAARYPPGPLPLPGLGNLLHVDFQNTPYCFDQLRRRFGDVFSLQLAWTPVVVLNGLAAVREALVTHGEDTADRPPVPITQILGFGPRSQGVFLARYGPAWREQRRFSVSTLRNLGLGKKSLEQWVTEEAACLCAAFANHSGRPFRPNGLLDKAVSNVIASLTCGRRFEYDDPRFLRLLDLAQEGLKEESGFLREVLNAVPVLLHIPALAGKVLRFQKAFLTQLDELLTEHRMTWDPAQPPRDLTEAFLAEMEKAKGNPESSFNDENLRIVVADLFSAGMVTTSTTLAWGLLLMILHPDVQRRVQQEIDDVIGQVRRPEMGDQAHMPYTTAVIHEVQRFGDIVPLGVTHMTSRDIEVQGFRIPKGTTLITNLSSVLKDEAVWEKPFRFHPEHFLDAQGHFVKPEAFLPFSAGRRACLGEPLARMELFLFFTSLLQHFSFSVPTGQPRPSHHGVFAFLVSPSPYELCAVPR
T3 sequence (P11712 whole entry): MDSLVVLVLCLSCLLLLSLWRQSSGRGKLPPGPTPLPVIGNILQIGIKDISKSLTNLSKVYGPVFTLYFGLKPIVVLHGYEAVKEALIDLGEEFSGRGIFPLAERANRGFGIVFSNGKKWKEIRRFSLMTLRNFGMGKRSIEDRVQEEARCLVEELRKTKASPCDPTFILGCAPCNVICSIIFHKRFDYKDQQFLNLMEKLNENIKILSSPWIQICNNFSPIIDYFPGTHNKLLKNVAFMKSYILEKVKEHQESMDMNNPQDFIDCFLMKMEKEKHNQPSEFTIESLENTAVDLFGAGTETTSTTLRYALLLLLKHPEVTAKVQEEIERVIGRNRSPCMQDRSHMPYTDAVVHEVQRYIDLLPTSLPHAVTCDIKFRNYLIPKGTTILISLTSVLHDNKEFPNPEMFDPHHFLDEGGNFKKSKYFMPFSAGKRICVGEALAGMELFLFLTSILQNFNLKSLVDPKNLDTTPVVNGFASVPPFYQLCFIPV

SMILES | safety window (hERG IC20/TLR7/8/9 IC50, in words) (hERG channel) | hERG IC20/TLR7 IC50 (hERG channel) | hERG IC20/TLR9 IC50 (hERG channel) | IC50 (hTLR9) [nM] | CYP (%) 2C9 (CYP2C9) [%] | CYP (%) 2D6 (CYP2D6) [%] | CYP (%) 3A4 (CYP3A4) [%]
C[C@@H]1CN(c2ccc(C#N)c3ncccc23)C[C@H](CN2CCN(c3ccccn3)CC2)O1 [ER-888285, reference compound] | much narrower safety window | 8.4 | 0.5 | > 2000 |  |  | 
C[C@@H]1CN(c2ccc(C#N)c3ncccc23)C[C@H](CN2CCN(c3ccccc3)CC2)O1 [ER-887258, reference compound] | much narrower safety window | 8.1 | 0.3 | > 2000 |  |  | 
C[C@@H]1CN(c2ccc(C#N)c3ncccc23)C[C@H](CN2CCN(c3ccncc3)CC2)O1 [ER-888286, reference compound] | much narrower safety window | 0.3 | 0.2 | > 2000 | 29.5 | 52.5 | 5.5
C[C@@H]1CN(c2ccc(C#N)c3ncccc23)C[C@H](CN2CC[C@@H](NC(=O)c3ccccc3)C2)O1 [ER-894544] |  |  |  | > 6200 |  |  | 
